Reference: US10670605B2, “Cysteine reactive probes and uses thereof” (The Scripps Research Institute, priority 2015, dated 2020)

Tests used:
Assay in all cases: Competitive isoTOP-ABPP in situ (fragment-treated cells)
Type in all cases: cell-based
Conditions in all cases: 200 μM, insitu, 231
[1] = target: T1, cysteines in MDA-MB-231 and Ramos cells (Homo sapiens, UniProt Q9HAV7)
T1 sequence (Q9HAV7 28-217): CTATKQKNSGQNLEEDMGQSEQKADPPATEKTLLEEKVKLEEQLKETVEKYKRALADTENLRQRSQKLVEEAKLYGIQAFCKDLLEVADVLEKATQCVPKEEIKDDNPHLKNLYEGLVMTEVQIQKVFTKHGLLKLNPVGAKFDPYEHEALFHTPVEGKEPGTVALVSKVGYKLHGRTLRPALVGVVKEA

[2] = target: T2, cysteines in MDA-MB-231 and Ramos cells (Homo sapiens, UniProt P24752)
T2 sequence (P24752 34-427): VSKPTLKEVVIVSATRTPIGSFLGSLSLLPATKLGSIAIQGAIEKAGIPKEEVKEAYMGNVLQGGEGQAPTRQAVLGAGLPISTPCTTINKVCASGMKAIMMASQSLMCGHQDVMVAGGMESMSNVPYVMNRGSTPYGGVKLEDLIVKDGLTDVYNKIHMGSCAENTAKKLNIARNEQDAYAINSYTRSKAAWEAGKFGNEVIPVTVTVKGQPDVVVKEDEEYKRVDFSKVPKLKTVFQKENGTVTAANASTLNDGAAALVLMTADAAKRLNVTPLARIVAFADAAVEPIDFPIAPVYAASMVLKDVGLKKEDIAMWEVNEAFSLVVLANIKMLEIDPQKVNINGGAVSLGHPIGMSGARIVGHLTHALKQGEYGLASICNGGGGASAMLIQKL

[3] = target: T3, cysteines in MDA-MB-231 and Ramos cells (Homo sapiens, UniProt Q9NYL9)
T3 sequence (Q9NYL9 1-352): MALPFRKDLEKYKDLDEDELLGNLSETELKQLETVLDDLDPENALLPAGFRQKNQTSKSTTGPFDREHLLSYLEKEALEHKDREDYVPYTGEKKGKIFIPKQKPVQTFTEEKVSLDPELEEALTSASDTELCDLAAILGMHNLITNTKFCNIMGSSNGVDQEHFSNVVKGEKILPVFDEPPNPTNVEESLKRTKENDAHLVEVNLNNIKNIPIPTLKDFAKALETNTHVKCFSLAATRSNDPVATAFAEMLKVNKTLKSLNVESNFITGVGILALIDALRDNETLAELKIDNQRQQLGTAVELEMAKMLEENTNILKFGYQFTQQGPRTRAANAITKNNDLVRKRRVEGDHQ

[4] = target: T4, cysteines in MDA-MB-231 and Ramos cells (Homo sapiens, UniProt P31943)
T4 sequence (P31943 1-449): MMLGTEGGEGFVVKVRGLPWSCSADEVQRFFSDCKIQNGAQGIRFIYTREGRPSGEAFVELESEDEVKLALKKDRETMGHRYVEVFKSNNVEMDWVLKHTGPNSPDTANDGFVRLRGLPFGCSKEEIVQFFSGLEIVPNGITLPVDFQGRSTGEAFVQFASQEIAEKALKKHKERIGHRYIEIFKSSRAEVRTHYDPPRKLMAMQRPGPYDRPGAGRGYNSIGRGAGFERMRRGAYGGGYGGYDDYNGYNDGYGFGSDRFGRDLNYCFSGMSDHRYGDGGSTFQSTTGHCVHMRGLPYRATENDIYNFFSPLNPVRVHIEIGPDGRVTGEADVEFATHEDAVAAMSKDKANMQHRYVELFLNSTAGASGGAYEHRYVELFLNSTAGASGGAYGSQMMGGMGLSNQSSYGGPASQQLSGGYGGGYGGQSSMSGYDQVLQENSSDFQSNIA

[5] = target: T5, cysteines in MDA-MB-231 and Ramos cells (Homo sapiens, UniProt P78417)
T5 sequence (P78417 1-241): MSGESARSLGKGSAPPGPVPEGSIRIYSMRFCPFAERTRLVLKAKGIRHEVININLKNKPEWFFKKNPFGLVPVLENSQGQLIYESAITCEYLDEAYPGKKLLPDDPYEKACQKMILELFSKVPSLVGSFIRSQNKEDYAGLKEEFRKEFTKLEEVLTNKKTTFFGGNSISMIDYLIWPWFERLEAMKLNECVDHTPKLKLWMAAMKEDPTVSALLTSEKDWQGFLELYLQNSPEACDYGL

[6] = target: T6, cysteines in MDA-MB-231 and Ramos cells (Homo sapiens, UniProt Q9Y277)
T6 sequence (Q9Y277 1-283): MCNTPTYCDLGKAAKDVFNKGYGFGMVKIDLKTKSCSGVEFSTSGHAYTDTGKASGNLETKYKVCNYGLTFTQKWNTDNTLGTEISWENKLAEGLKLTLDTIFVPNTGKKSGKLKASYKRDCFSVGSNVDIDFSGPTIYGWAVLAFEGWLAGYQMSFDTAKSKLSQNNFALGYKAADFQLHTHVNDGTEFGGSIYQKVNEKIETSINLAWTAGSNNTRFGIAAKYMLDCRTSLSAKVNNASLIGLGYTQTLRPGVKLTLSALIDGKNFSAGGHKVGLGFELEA

[7] = target: T7, cysteines in MDA-MB-231 and Ramos cells (Homo sapiens, UniProt Q9BQ69)
T7 sequence (Q9BQ69 1-325): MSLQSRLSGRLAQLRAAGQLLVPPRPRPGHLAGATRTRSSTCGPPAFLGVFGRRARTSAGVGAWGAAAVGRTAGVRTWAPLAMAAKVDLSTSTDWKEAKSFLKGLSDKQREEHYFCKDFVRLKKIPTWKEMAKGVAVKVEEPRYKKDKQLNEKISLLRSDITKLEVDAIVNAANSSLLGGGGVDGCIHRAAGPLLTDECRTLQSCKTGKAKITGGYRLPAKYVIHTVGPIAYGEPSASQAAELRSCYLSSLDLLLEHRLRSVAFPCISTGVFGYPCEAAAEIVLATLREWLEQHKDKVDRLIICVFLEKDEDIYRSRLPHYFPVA

isoTOP-ABPP ratio Q9HAV7_C124 [1] | isoTOP-ABPP ratio P24752_C119 [2] | isoTOP-ABPP ratio P24752_C413 [2] | isoTOP-ABPP ratio Q9NYL9_C132 [3] | isoTOP-ABPP ratio P31943_C267 [4] | isoTOP-ABPP ratio P78417_C32 [5] | isoTOP-ABPP ratio Q9Y277_C65 [6] | isoTOP-ABPP ratio Q9BQ69_C186 [7] | isoTOP-ABPP ratio, P24752_C196 [2] | isoTOP-ABPP ratio, P24752_C126 [2] | Compound
0.6 | 1.6 | 1.9 | 0.6 | 1.1 | 20.0 | 1.6 | 2.4 |  |  | CC(C)CCOCCNC(=O)CCl [compound 27]
1.0 | 1.2 | 1.1 | 2.6 | 1.2 | 1.0 | 20.0 | 3.6 | 1.0 |  | C=CC(=O)Nc1cc(F)c(N2CCN(C(=O)OC(C)(C)C)CC2)c(F)c1 [compound 38]
0.6 | 1.9 | 0.9 | 0.3 | 1.0 | 0.3 | 1.4 | 1.2 | 0.9 | 0.8 | Cc1ccc(C=C(C#N)C(=O)NCCN2CCOCC2)cc1 [compound 41]
